Results published in patent publication US10618869B2, “Oligo-benzamide compounds and their use” (The Board of Regents of the University of Texas System, priority 2010, dated 2020).
“Also recorded” adds a separate entry of the source.

Columns and labels:
Format in all cases: cell-based
[1] = test system: erk; test: erk phosphorylation after serum starvation (western blot, FIG. 16); conditions: following serum starvation, D1 at higher concentrations (500 nM)
Procedure: FIG. 16. Evidence for utility of higher concentrations of D1 in blocking erk phosphorylation: following serum starvation, cells were treated with either D1 or D2 and assessed for their ability to block erk phosphorylation.
D2, and to a less extent D1, targets a validated target in prostate cancer, has the potential to be an AR-selective modulator, provides a novel mechanism of action, and will likely provide a sustained effect in the context of therapy.

[2] = test system: LNCaP cells; test: Uptake of fluorescein analogues of D2 by LNCaP cells; conditions: summary statement
Procedure: FIGS. 14A-C. Effect of chemical conjugation of Fluorescein to D2 at the amino and carboxy terminus (FIG. 14A) on uptake by LnCaP cells at 4 hours (FIG. 14B) and on DHT-induced proliferation of PCa cells (FIG. 14C).
In FIG. 14, two fluorescent analogues of D2 were prepared, one by introducing a fluorescein moiety to the C-terminus of D2 (CF1-D2) and the other by placing it at the N-terminus (CF2-D2).

[3] = test system: PSA-luciferase promoter; test: DHT-induced transcription from PSA-luciferase promoter; conditions: LAPC4 cells
Source text: (§1) FIG. 9. […] This effect of D2 could be rescued by overexpression of AR (bottom left panel) or PELP1 (bottom right panel).
(§2) At the protein level, D2, but not D1, was able to block DHT-induced expression of PSA protein. Again, the suppresion of DHT-induced transcription from an ARE could be overcome by overexpression of either AR or PELP1 ([…]). Overexpression of PELP1 was able to rescue the D2-mediated suppression of DHT-induced transcription nearly back to baseline.

[4] = test system: PSA and TMPRSS promoter; test: QPCR of PSA and TMPRSS, DHT-induced
Source text: (§3) FIG. 8 confirms these findings by QPCR experiment evaluating the effect of D1 and D2 on DHT-induced TMPRSS and PSA gene expression at the RNA level in LNCaP cells (bottom left panel) and by western blot analyses as evaluated by the effect of D1 and D2 on the expression of PSA, androgen receptor and actin in LAPC4 cells at the protein level. […] Confirmation of these findings were obtained by QPCR and western blot analyses.
as §2

[5] = test system: AR binding on PSA promoter; test: ChIP assay of AR binding on PSA promoter
Source text: as §1, §2

[6] = test system: PSA protein; test: DHT-induced PSA protein expression (western blot); conditions: protein level
Source text: as §3, §2

[7] = test system: AR-negative PCa cell lines such as DU145 or PC3; test: DHT-induced proliferation of AR-negative PCa cell lines
Procedure: FIGS. 10A-E. D2 blocks proliferation of prostate cancer cells in vitro and in vivo (a) Effect of pretreatment with 100 nM of D1 and D2 on DHT-induced proliferation in multiple prostate cancer cell lines in MTT assay. Numbers are normalized to a baseline of 100, which represents the untreated rate of proliferation. (b) Effect of pretreatment with 100 nM of D1 and D2 on DHT-induced proliferation in LNCaPcells on a Cyquant assay. (c) Dose dependent curve of D2 on proliferation of LAPC4 cells. (d) Rescue of DHT induced proliferation by overexpression of PELP1 following suppression of DHT induced proliferation with 100 nM of D2. (e). Effect of direct intratumoral injections of D1 and D2 on the proliferation of prostate cancer xenografts in animal models: Following establishment of subcutaneous xenografts in animal models, daily direct intratumoral injections of D1 and D2 were performed. Bioluminesence imaging was used to track the growth of the tumors and the effect of D1 and D2 quantitated as shown in the graph.
The importance of PELP1 and AR interaction on DHT-mediated proliferation of prostate cancer cells were confirmed using rescue experiments, where D2 suppression of DHT-mediated proliferation was overcome by overexpression of PELP1 in LNCaP PCa cells.

[8] = test system: erk; test: DHT-mediated non-genomic activation of erk; conditions: FIG. 12

COC(=O)c1ccc(NC(=O)c2ccc([N+](=O)[O-])c(OCC(C)C)c2)c(OCC(C)C)c1 [D2]
erk activation / phosphorylation [1]: blocks at lower concentrations
entry into prostate cancer cells [2]: enters the prostate cancer cells
DHT-induced transcription from PSA-luciferase promoter [3]: able to block; also recorded: block DHT-Induced gene expression
DHT-induced transcription from ARE-driven promoters at RNA level (QPCR) [4]: block DHT-induced transcription from ARE-driven promoters was confirmed
DHT-induced AR binding on PSA promoter (ChIP) [5]: blocked DHT-induced AR binding; also recorded: blocked AR binding to its cognate DNA sequence
DHT-induced expression of PSA protein [6]: able to block
DHT-induced proliferation of AR-negative PCa cell lines [7]: but not AR-negative PCa cell lines
DHT-mediated non-genomic activation of erk [8]: no effect; also recorded: does not block
